# Test results reported in US7915302B2, “Crystal forms of pyrrolylheptanoic acid derivatives” (Dong-A Pharm. Co., Ltd., priority 2007, dated 2011).
# Test: Stability Identification-Content Measurement (HPLC content after storage in HDPE bottle)
# Assay type: physicochemical
# Method: 80 mg of the novel crystalline form of the compound prepared in Example 2 and 80 mg of a standard product with a purity of 99.9% prepared by the process described in Example 2 were accurately weighed, placed in 100 ml volumetric flasks, and dissolved in dimethylformamide. The volumes of the solutions were adjusted to the marked lines of the flasks to prepare test solutions and standard solutions, respectively. Each of the solutions was analyzed by column chromatography under the following conditions: • Column: Zorbax Rx C8 (4.6 mm×250 mm, 5 μm) or its equivalent • Mobile Phase (0.05 M ammonium acetate buffer (pH=5.0)/acetonitrile/tetrahydrofuran) Mobile Phase A: • 0.05 M ammonium acetate buffer (pH=5.0)/acetonitrile/tetrahydrofuran (67/21/12) Mobile Phase B: • 0.05M ammonium acetate buffer (pH=5.0)/acetonitrile/tetrahydrofuran (54/34/12) • Detector: UV absorption spectrophotometer (wavelength: 244 nm) • Flow Rate: 1.0 mL/min. • Column Temperature: 35±2° C. • Storage: in HDPE bottle
# The contents of the compound prepared in Example 2 were quantified by the area under each peak. Variations in the content of the compound were evaluated at room temperature, in a freezer, under accelerated storage conditions and under extreme storage conditions over the periods indicated in Table 6, and the results are shown in Table 6.
substance,measurement,setting,value
"[R—(R*,R*)]-2-(4-fluorophenyl)-β,δ-dihydroxy-5-(1-methylethyl)-3-phenyl-4-[(phenylamino)carbonyl]-1H-pyrrole-1-heptanoic acid hemicalcium salt [Example 2]",content of the compound,"40° C./75% RH (accelerated storage), 1 month",98.82%
same,content of the compound,"40° C./75% RH (accelerated storage), 2 months",98.33%
same,content of the compound,"40° C./75% RH (accelerated storage), 3 months",98.03%
same,content of the compound,"60° C./Dry (extreme storage), 1 month",98.01%
same,content of the compound,"at room temp., 1 month",98.72%
same,content of the compound,"at room temp., 2 months",98.58%
same,content of the compound,"at room temp., 3 months",98.12%
same,content of the compound,"at room temp., 6 months",98.56%
same,content of the compound,"in freezer, 1 month",99.74%
same,content of the compound,"in freezer, 2 months",99.31%
same,content of the compound,"in freezer, 3 months",100.19%
same,content of the compound,"in freezer, 6 months",98.11%
